Measured values taken from patent US6982330B2, “Carbazole based compound, coloring material, colored high molecular organic material and electroluminescent material” (Dai Nippon Printing Co., LTD, priority 2002, dated 2006).

Assays:
[1] = Solubility to solvent (toluene or xylene, 2% by weight, 50° C.); assay type: physicochemical; conditions: added so as to make concentration 2% by weight, stirred at 50° C. for one hour
Method: The carbazole based compound of the formula (4) synthesized in Example 1 was added in the toluene or xylene so as to make concentration at 2% by weight, and then stirred in a thermal condition at 50° C. for one hour.

[2] = Suppressibility of crystallization (film formation ability) of spin-coated layer on glass plate; assay type: physicochemical; conditions: dried at ambient temperature 30 minutes
Method: A toluene solution containing 2% by weight of the carbazole based compound of the formula (4) synthesized in Example 1 was prepared. Also, the other toluene solution containing 2% by weight of the same carbazole based compound and 2% by weight of an acrylic binder resin was prepared.
For the comparative examples, the other toluene solution containing 2% by weight of the carbazole (available from Sigma Aldrich Co,.) and the still other toluene solution containing 2% by weight of the carbazole and 2% by weight of the acrylic binder resin were prepared.
2 ml of the each toluene solution was dropped on a non-alkaline glass plate with 5 cm-square shape, and carried out a spin coating at 1,000 rotation per minute for about 2 seconds. Thereafter, it was dried at ambient temperature for 30 minutes, and then a surface of the coating layer was observed and evaluation was carried out regarding suitablility of coating and film-formation process and suppressibility of crystallizing.

Row | SMILES | solubility in toluene or xylene [1] | crystallization of coating layer (visual observation) ([2]; toluene solution containing 2% by weight of compound alone) | crystallization of coating layer (visual observation) ([2]; toluene solution containing 2% by weight of compound and 2% by weight of acrylic binder resin)
1 | c1cc2cccc3c4cccc5cccc(c(c1)c23)c54 [perylene] | solubility was insufficient |  | 
2 | c1ccc2c(c1)[nH]c1ccccc12 [carbazole] |  | crystallized to an extent that findable by visual observation | crystallized to an extent that findable by visual observation
